Test results published in US7163918B2, “Iodothyronine compositions” (New River Pharmaceuticals Inc., priority 2000, dated 2007).
Where a SMILES comes first, the peptide text is derived from it. [ ]: non-standard residue; d: D form. Thyronine(3,5,3'-I3) = N[C@@H](Cc1cc(I)c(Oc2ccc(O)c(I)c2)c(I)c1)C(=O)O

Legend:
[1] = Solid dose oral delivery, total T3 serum concentration AUC
[2] = molecular target: amidase (EC 3.5.1.4; from Pseudomonas aeruginosa) (Pseudomonas aeruginosa, UniProt P11436); conditions: Table 1; 37° C., 24 hours
amidase (EC 3.5.1.4; from Pseudomonas aeruginosa), sequence (P11436 whole entry): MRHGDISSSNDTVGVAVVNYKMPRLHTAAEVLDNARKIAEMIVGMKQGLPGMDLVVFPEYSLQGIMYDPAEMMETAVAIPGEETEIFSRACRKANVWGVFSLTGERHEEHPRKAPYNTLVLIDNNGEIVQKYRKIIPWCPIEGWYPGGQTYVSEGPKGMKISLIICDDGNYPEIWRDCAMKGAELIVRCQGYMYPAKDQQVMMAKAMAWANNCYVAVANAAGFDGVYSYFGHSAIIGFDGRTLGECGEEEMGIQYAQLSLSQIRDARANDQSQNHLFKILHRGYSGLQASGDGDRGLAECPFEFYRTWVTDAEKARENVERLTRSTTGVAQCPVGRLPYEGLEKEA

[3] = Solution dose oral delivery, T4 N-capped trimer vs. T4 sodium salt, total serum T4; parameters: species or system Sprague-dawley rats; conditions: rat, in vivo
Experimental: (§1) Compounds were tested in Sprague-dawley rats (˜250 g). […] Rats were dosed immediately following 0 hour serum collection.

[4] = rat, in vivo
[5] = parameters: species or system Sprague-dawley rats; conditions: rat, in vivo
Experimental: as §1

N[C@@H](CCC(=O)O)C(=O)N[C@@H](CCC(=O)O)C(=O)N[C@@H](Cc1cc(I)c(Oc2ccc(O)c(I)c2)c(I)c1)C(=O)O [C-Capped Trimer]
total AUC divided by total AUC for T3 sodium ([1]; Study No. 13, rats): (89%)

N[C@@H](CCC(=O)O)C(=O)N[C@@H](CCC(=O)O)C(=O)N[C@@H](CCC(=O)O)C(=O)N[C@@H](CCC(=O)O)C(=O)N[C@@H](CCC(=O)O)C(=O)N[C@@H](CCC(=O)O)C(=O)N[C@@H](CCC(=O)O)C(=O)N[C@@H](CCC(=O)O)C(=O)N[C@@H](CCC(=O)O)C(=O)N[C@@H](CCC(=O)O)C(=O)N[C@@H](CCC(=O)O)C(=O)N[C@@H](CCC(=O)O)C(=O)N[C@@H](CCC(=O)O)C(=O)N[C@@H](CCC(=O)O)C(=O)N[C@@H](CCC(=O)O)C(=O)N[C@@H](Cc1cc(I)c(Oc2ccc(O)c(I)c2)c(I)c1)C(=O)N[C@@H](CCC(=O)O)C(=O)N[C@@H](CCC(=O)O)C(=O)N[C@@H](CCC(=O)O)C(=O)N[C@@H](CCC(=O)O)C(=O)O [20-Mer] (H-EEEEEEEEEEEEEEE[Thyronine(3,5,3'-I3)]EEEE-OH)
total AUC divided by total AUC for T3 sodium ([1]; Study No. 12, rats): (69%)

N[C@@H](CCC(=O)O)C(=O)N[C@@H](Cc1cc(I)c(Oc2ccc(O)c(I)c2)c(I)c1)C(=O)O [C-Capped Dimer]
total AUC divided by total AUC for T3 sodium ([1]; Study No. 13, rats): (81%)

CCCCCCCCCCCCCCCC(=O)Oc1ccc(Oc2c(I)cc(CC(N)C(=O)O)cc2I)cc1I.O=C(O)C(F)(F)F (centres unmarked) [T3C16, Trioodothyronine Hexadeconoate—TFA]
enzymatic release of T3, Amidase [2]: 1.2

N[C@@H](Cc1cc(I)c(Oc2cc(I)c(O)c(I)c2)c(I)c1)C(=O)N[C@@H](CCC(=O)O)C(=O)N[C@@H](CCC(=O)O)C(=O)O [T4 N-capped trimer]
Tmax (time to reach maximal concentration) ([3]; Sprague-Dawley, po): 10.2 h | increase of Cmax as compared to the sodium salt [3]: 48% | increase of mean AUC relative to the T4 sodium salt AUC [3]: 115% | increase of Δmax (Δ at Cmax) relative to the Δmax of T4 sodium salt [3]: 68% | Cmax +/− SD ([3]; po): 13.0 ± 0.6 ng/dL | Cmax, Percent of T4 sodium salt ([3]; po): 148% | Delta @ Cmax (change in total T4 serum levels from 0 hour level) ([3]; po): 6.7 ± 1.5 ng/dL | Delta @ Cmax, Percent of T4 sodium salt ([3]; po): 168%

N[C@@H](Cc1cc(I)c(Oc2ccc(O)c(I)c2)c(I)c1)C(=O)N[C@@H](CCC(=O)O)C(=O)O [N-Capped Dimer]
total AUC divided by total AUC for T3 sodium ([1]; Study No. 11, rats): (104%)

N[C@@H](Cc1cc(I)c(Oc2ccc(O)c(I)c2)c(I)c1)C(=O)N[C@@H](CCC(=O)O)C(=O)N[C@@H](CCC(=O)O)C(=O)O [T3 N-capped trimer, H-(T3)EE-OH]
increase of Cmax over the corresponding T3 sodium salt control [4]: 50.8% | increase of mean AUC relative to the corresponding T3 sodium salt control [4]: 72.1% | increase of Δmax over the corresponding T3 sodium salt control [4]: 85.6% | total AUC divided by total AUC for T3 sodium ([1]; Study No. 11, rats): 123% | total AUC divided by total AUC for T3 sodium ([1]; Study No. 11, rats, listed as N-Capped Trimer): (123%) | total AUC divided by total AUC for T3 sodium ([1]; Study No. 17, rats): (102%) | increase of Cmax as compared to T3 sodium salt [5]: 65.2% | increase of mean AUC relative to the T3 sodium salt AUC [5]: 50.3% | increase of Δmax relative to the Δmax of T3 sodium salt [5]: 75.9%

CCCCCCCC(=O)N[C@@H](Cc1cc(I)c(Oc2ccc(OC(=O)CCCCCCC)c(I)c2)c(I)c1)C(=O)O [C8T3(C8), N-Octanoyl-L-triiodothyronine(O-octanoyl)]
enzymatic release of T3, Amidase [2]: 0.0
